Consider 3 molecules from US12233129B2, “Methods and compositions for the treatment of cancer” (priority 2019, dated 2025).

“Also recorded” adds a separate entry of the source.

For assay [1], the system named is SW-48 (WT-p53) colon cancer cells. As to the kind of experiment: Cell viability / clonogenic survival with and without mot-2 inhibitor MKT-077. Format: cell-based, human. Set-up: dose or concentration left out as unconfirmed. Conditions: VTD with mot-2 inhibitor MKT-077, 72 hours. The procedure:
We decided to confirm whether VTD-induced tumor suppression is indeed mediated via the UBXN2A-mot-2-p53 axis (FIG. 18H). After initial verification with WB (FIG. 18A), HCT-116 (p53+/+ and p53 −/−) and LoVo were treated with VTD for 24, 48, and 72 hours (FIG. 18B-D). […] We defined this phenomenon as a delayed cytotoxic response, since it occurs through UBXN2A transcription, as previously described for other anti-cancer agents. […] In the second set of experiments, we treated two stable UBXN2A silenced clones of HCT-116 along with controls with VTD. […] Staurosporine-treated cells were used as a positive control (S4F). […] Finally, to understand the contribution of mot-2 to the anti-cancer mechanism of VTD, we used a mot-2 inhibitor known as MKT-077 [7] along with VTD in well-differentiated SW-48 (WT-p53) colon cancer cells for 72 hours. Due to the critical role of mot-2 in the mitochondria, we could not use a silencing strategy for mot-2 in this set of experiments.
FIG. 18: Veratridine (VTD) functions via the UBXN2A-mot-2-p53 axis. (A) WB confirmed the presence and the absence of p53 protein in HCT-116 p53^(+/+) and HCT-116 p53^(−/−) cancer cell lines, respectively. […] (F) In another set of experiments, UBXN2A-silenced cells were treated with VTD (100, 200, and 300 μM) for 24 hours. Cells were then labelled with Sytox Red followed by flow cytometry analysis. […] (G) SW48 well-differentiated colon cancer cells with WT-p53 were treated with MKT-077 (5 mg/ml), an mot-2 inhibitor, along with VTD for 72 hours. […] (H) This flowchart recapped the sequence of proteins which activate and function upon VTD exposure to decrease cell viability. The data is shown as mean±SEM of three independent experiments (n=3) in triplicate where *p<0.05 using Benferroni's modified student's t-test.

For assay [2], the system named is HCT-116. The procedure:
(§1) Besides the cell viability assay, we decided to measure the apoptotic activity in the above combination therapy.
(§2) Cells were treated with 5-FU (5-100 μM) and etoposide (1-50 μM) along with VTD (30 and 100 μM respectively) in two different set of experiments for 24 hours.
(§3) An MTT (3[4, 5-dimethylthiazol-2-yl]-2, 5-diphenyltetrazolium bromide) assay was performed to measure the viability of cells. Briefly, cells were seeded at a density of 10×10^3 cells per well in phenol-red free growth media. After 24 hours, cells were treated with various concentrations of VTD±5-FU or etoposide. After incubation, an MTT dye was added to the cells for 2-4 hours. The absorbance of samples was measured at 630 nm using an EXL808 absorption spectrophotometer (Biotek, Winooski). The viability of cells was calculated as % of control. Cell detachment and clonogenic survival assays were conducted as previously described. Early apoptosis, caspase-3, cleaved PARP and Sytox Red (Life Technology, NY, USA) were measured by the Accuri C6 flow cytometer system (BD Pharmingen, MD, USA).[54]
(§4) (A-H) (A-C) HCT-116 and (D-F) LoVo were treated with VTD (10-300 μM) for 24, 48, and 72 hours. A suboptimal dose of Etoposide (ETO) ([…]) was added to cells for the last 24 hours only. The viability of cells was determined as % of control (untreated cells) using an MTT assay. […] (G-H) HCT-116 (G) and LoVo (H) cells were treated with VTD (10-200 μM) and a suboptimal dose of ETO (5 μM) for 24 hours. Cells were then stained with Annexin V apoptotic marker. […] (I-L) HCT-116 and LoVo cells were treated with different doses of 5-FU (5-100 μM, I-J) and ETO (1-50 μM, K-L) along with VTD (30 μM and 100 μM respectively) for 24 hours.

The subject of assay [3] is LoVo. The procedure: as §1, §2, §3, §4
Assay [4] relates to p53. In words: Western blot of p53 in cytoplasm and nuclear fractions of etoposide-treated HCT-116 cells. Format: cell-based, human. Conditions: 20 and 50 μM etoposide, 24 h. From the text:
Small molecules, p53 c-terminus peptides, and silenced mot-2 abrogate mot-2-p53 complexes, resulting in p53 nuclear localization. Because UBXN2A is capable of releasing p53 from mot-2, we decided to determine whether UBXN2A can lead to p53 nuclear accumulation in a similar mechanism. HCT-116 cells were transiently transfected with different amounts of UBXN2A plasmid. Exogenous UBXN2A was detected dominantly in the cytoplasm fraction (FIG. 4a), and, therefore, it is an ideal model to identify the cellular consequences of UBXN2A gain-of-function. After 48 h, nuclear and cytoplasmic fractions were collected, followed by WB analysis (FIGS. 4a-d). […] Similar to several previously reported scenarios,^23 co-upregulation of UBXN2A with p53 may be essential to inhibiting mot-2 and delivering maximum p53 into nuclei during the initiation of genotoxic stress. Similar results were obtained in response to single DNA-strand damage produced by UVB irradiation. In the next step, we decided to determine whether UBXN2A increases the transcriptional activities of p53. We found overexpression of UBXN2A led to upregulation of BAX protein^24 (FIG. 4g). In addition, the level of cleaved PARP increased in the presence of overexpressed UBXN2A (FIG. 4g). […]
For orientation: Immunoblotting shows a protein as a band on a membrane.

For assay [5], the system named is HCT-116. In words: Annexin V early apoptosis, VTD plus etoposide. Conditions: VTD 10-200 μM plus etoposide 5 μM, 24 hours. Format: cell-based, human. The procedure: (§5) The viability of cells was calculated as % of control.
(§6) Cells were then stained with Annexin V apoptotic marker.

Assay [6] has as its system LoVo. In words: Annexin V early apoptosis, VTD plus etoposide. The assay is classed as cell-based, human. Conditions: VTD 10-200 μM plus etoposide 5 μM, 24 hours. The procedure: as §5, §6
In assay [7] the test system is UBXN2A. As to the kind of experiment: RT-PCR and western blot of UBXN2A in etoposide-treated HCT-116 cells. Format: cell-based, human.
For assay [8], the target named is T1, p53-mot-2 (Homo sapiens, UniProt P38646).
T1 construct: purchased SignalChem (Richmond, CANADA)
T1 sequence (P38646 47-679): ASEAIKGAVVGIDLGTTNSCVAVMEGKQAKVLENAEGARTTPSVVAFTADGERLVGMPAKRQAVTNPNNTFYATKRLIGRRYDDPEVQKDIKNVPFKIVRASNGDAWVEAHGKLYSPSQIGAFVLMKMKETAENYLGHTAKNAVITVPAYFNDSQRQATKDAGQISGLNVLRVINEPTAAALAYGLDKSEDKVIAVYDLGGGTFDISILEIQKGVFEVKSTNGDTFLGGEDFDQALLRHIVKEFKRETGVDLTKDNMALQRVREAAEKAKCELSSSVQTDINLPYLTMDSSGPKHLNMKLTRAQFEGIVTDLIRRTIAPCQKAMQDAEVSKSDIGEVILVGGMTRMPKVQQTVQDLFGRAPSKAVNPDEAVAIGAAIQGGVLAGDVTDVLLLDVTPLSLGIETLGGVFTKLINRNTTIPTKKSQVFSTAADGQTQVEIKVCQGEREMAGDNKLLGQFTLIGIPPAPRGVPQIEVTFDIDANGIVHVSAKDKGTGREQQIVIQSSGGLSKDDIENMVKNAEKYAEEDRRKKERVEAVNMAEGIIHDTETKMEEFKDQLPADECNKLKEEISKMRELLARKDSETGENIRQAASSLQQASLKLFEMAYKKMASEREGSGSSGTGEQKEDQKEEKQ
In words: In vitro competition immunoprecipitation assay (mot-2, p53, recombinant UBXN2A). The assay is classed as binding. From the text:
Because mot-2 binds to the […] of p53 and sequesters WT-p53 in the cytoplasm, we asked whether binding UBXN2A to mot-2 can alter mot-2's affinity for p53. […] That is, the two complexes might be mutually exclusive. To further determine whether the binding of mot-2 to UBXN2A decreases the binding of mot-2 to p53, we performed two set of immunoprecipitation experiments with recombinant UBXN2A. FIG. 3a describes an in vitro competition immunoprecipitation assay system containing mot-2, p53, and an increasing amount of recombinant UBXN2A. […] The lowest binding between p53-mot-2 was observed when UBXN2A and mot-2 were present in approximately a 1:1 ratio by their molecular mass (lane 1 versus lane 2). In FIG. 3b, cytosolic fractions enriched with mot-2 and p53 proteins (fractions 3-5, FIG. 2e) were incubated with recombinant GST-tag human UBXN2A protein. After the initial 2 h of incubation, samples were subjected to immunoprecipitation with anti-p53 antibodies. GST-UBXN2A and endogenous mot-2 ratio was 2.5:1 in the reaction. […] Next, we decided to verify whether endogenous UBXN2A can interfere with mot-2-p53 binding using an ex vivo model. […]
FIG. 3 UBXN2A and p53 compete for binding to mot-2. […] Mot-2 proteins were eluted from the beads and analyzed by western blotting using an anti-mot-2 antibody. […]

As for `CCn1c(=O)/c(=C2\Sc3ccccc3N2C)s/c1=C\c1cccc[n+]1CC.[Cl-]` [MKT-077], the “cell viability / colony number” value in assay [1] is listed as “neutralizes the cytotoxic effect of VTD”.

Regarding `COc1cc([C@@H]2c3cc4c(cc3[C@@H](O[C@@H]3O[C@@H]5CO[C@@H](C)O[C@H]5[C@H](O)[C@H]3O)[C@H]3COC(=O)[C@H]23)OCO4)cc(OC)c1O` [etoposide], the “cell viability (MTT), combination” value in assay [2] and in assay [3] was “significantly enhanced the VTD-induced decrease in cell viability” throughout. Also, the “effectiveness of etoposide alone (MTT)” value in assay [3] (LoVo versus HCT-116, time-dependent) is on record as “more effectiveness in well differentiated cells (LoVo) than HCT-116 cells”. Moreover, the “p53 upregulation and nuclear localization” value in assay [4] was “upregulation and nuclear localization of p53 becomes significant”. In addition, the “early apoptosis (Annexin V)” value in assay [5] and in assay [6] was “significantly sensitizes” in each case. For the same molecule, the UBXN2A protein result in assay [7] (etoposide 20 and 50 μM, 24 h) is recorded as “increased; also recorded: significant upregulation of UBXN2A”. Further, in assay [7] (etoposide 24 h), the “UBXN2A mRNA” value is “increased; also recorded: enhances transcription of UBXN2A”.

B1: recombinant human UBXN2A: recombinant GST-tag human UBXN2A protein (SignalChem) (protein, UniProt P68543 1-259, looked up)
UBX domain-containing protein …: MKDVDNLKSIKEEWVCETGSDNQPLGNNQQSNCEYFVDSLFEEAQKVSSKCVSPAEQKKQVDVNIKLWKNGFTVNDDFRSYSDGASQQFLNSIKKGELPSELQGIFDKEEVDVKVEDKKNEICLSTKPVFQPFSGQGHRLGSATPKIVSKAKNIEVENKNNLSAVPLNNLEPITNIQIWLANGKRIVQKFNITHRVSHIKDFIEKYQGSQRSPPFSLATALPVLRLLDETLTLEEADLQNAVIIQRLQKTASFRELSEH
modifications: GST tag
Take B1: the “mot-2 protein-bound p53” value in assay [8] (HCT-116 cytosolic fractions 3-5, GST-UBXN2A to endogenous mot-2 ratio 2.5:1, 2 h) was “decreased the amount of mot-2 protein-bound p53”. Besides, the “mot-2 pulled down by anti-p53 antibodies” value in assay [8] (recombinant GST-p53, GST-mot-2, increasing amounts of UBXN2A) is on record as “decreased the intensity of mot-2 bands”.
